Key:
[1] = system: leptin-deficient (obese fa/fa) Zucker rats; test: Liver histo-morphology (HE and Oil Red O staining), hepatic lipidosis in Zucker rats; format: in vivo, rat; design: key to Force Rank (Oil Red O): 1 = least severe; 5 = most severe; conditions: for Force Rank (Oil Red O) / Severity of Hepatic Lipidosis: N = 5 males
From the text: To examine the effect of 25HC3S on lipid accumulation in sera and in the liver in a leptin-deficient (obese fa/fa) animal model (Zucker rats), 11 week old Zucker rats (Charles River, Wilmington, Mass.) were randomly assigned into four groups. Obese fa/fa Zucker rats have a defective leptin receptor and serve as a general animal model for deficiencies in leptin activity, whether due to low leptin levels, congenital defects in the leptin receptor or acquired leptin resistance, since all result in inadequate or faulty leptin activity. Further, these animals develop unwanted lipid accumulation after several weeks of life due to a genetic mutation in the leptin receptor. All rats were housed under identical conditions with a 12-hour light/12-hour dark cycle and given free access to water and food. The rats (n=5 in each treatment) were gavaged orally with vehicle (10% cellulose) or 25HC3S (10 mg/kg, 30 mg/kg, and 100 mg/kg) once a day for 21 days and fasted overnight (14 hrs) before collection of samples. To compare with gavage administration, other rats (n=10-17 in each treatment) were intraperitoneally injected with vehicle solution (ethanol/PBS; vehicle) or 25HC3S (50 mg/kg) once every three days for 6 weeks and fasted overnight (14 hrs). Blood samples were collected before sacrifice. Serum triglyceride (TG), total cholesterol (CHOL), high density lipoprotein-cholesterol (HDL-C), alkaline phosphatase (ALK), alanine aminotransferase (ALT), and aspartate aminotransferase (AST) were measured using standard enzymatic techniques. Lipoprotein profiles in sera were analyzed by HPLC in the following descriptions. Three specimens from different regions of the liver of each rat were collected and fixed in 4% paraformaldehyde in 0.1 M phosphate buffer at room temperature overnight. The regions of the specimens were standardized for all rats. The paraffin-embedded tissue sections (4 μm) were stained with hematoxylin and eosin (HE). 3-3′-Diaminobenzidine (DAB) was used as the chromogen, and hematoxylin was used as the nuclear counterstain. Determination of total intracellular lipids: Oil Red O staining of intracellular neutral lipids: the liver slides were fixed with 3.7% formaldehyde in PBS for 30 min followed by two washes with phosphate-buffered saline (PBS). The cells were stained with 0.2% Oil Red O in 60% 2-propanol for 10 min and washed three times with PBS. The images were taken with the use of a microscope (Olympus, Tokyo, Japan) equipped with image recorder under 40× lenses. All slides of tissue were qualitatively examined by light microscopy by a board certified veterinary pathologist. The incidence and severity of the lesions were scored. Lesions were also assessed for duration and distribution.

[2] = system: leptin-deficient (obese fa/fa) Zucker rats; test: Quantification of hepatic lipids in Zucker rats; format: in vivo, rat; conditions: 21 days
From the text: (§1) To examine the effect of 25HC3S on lipid accumulation in sera and in the liver in a leptin-deficient (obese fa/fa) animal model (Zucker rats), 11 week old Zucker rats (Charles River, Wilmington, Mass.) were randomly assigned into four groups. Obese fa/fa Zucker rats have a defective leptin receptor and serve as a general animal model for deficiencies in leptin activity, whether due to low leptin levels, congenital defects in the leptin receptor or acquired leptin resistance, since all result in inadequate or faulty leptin activity. Further, these animals develop unwanted lipid accumulation after several weeks of life due to a genetic mutation in the leptin receptor. All rats were housed under identical conditions with a 12-hour light/12-hour dark cycle and given free access to water and food. The rats (n=5 in each treatment) were gavaged orally with vehicle (10% cellulose) or 25HC3S (10 mg/kg, 30 mg/kg, and 100 mg/kg) once a day for 21 days and fasted overnight (14 hrs) before collection of samples. To compare with gavage administration, other rats (n=10-17 in each treatment) were intraperitoneally injected with vehicle solution (ethanol/PBS; vehicle) or 25HC3S (50 mg/kg) once every three days for 6 weeks and fasted overnight (14 hrs). Blood samples were collected before sacrifice. Serum triglyceride (TG), total cholesterol (CHOL), high density lipoprotein-cholesterol (HDL-C), alkaline phosphatase (ALK), alanine aminotransferase (ALT), and aspartate aminotransferase (AST) were measured using standard enzymatic techniques. Lipoprotein profiles in sera were analyzed by HPLC in the following descriptions.
Liver tissues were homogenized, and the hepatic total lipids were extracted using a mixture of chloroform and methanol (2:1, v:v). After the extracts were filtered, 0.2 ml of each was evaporated to dryness and dissolved in 100 μl of isopropanol containing 10% Triton™ X-100 for cholesterol assay (Wako Chemicals USA, Richmond, Va.), 100 μl of NEFA solution (0.5 g of EDTA-Naz, 2 g of Triton™ X-100, 0.76 ml of 1N NaOH, and 0.5 g of sodium azide/1, pH 6.5) for the free fatty acid assay (Wako Chemicals USA, Richmond, Va.), or 100 μl of isopropanol only for the triglyceride assay (Fisher Scientific, Pittsburgh, Pa.). Each lipid concentration was normalized by liver weight.

[3] = system: THP-1 macrophages; conditions: Ma et al., 2008, Ren et al., 2007, Xu et al., 2010; cited from earlier work
[4] = system: primary hepatocytes; conditions: Ma et al., 2008, Ren et al., 2007, Xu et al., 2010; cited from earlier work
[5] = system: leptin-deficient (obese fa/fa) Zucker rats; test: Serum lipid levels in leptin-deficient (obese fa/fa) Zucker rats after 25HC3S administration; format: in vivo, rat
From the text: as §1, with “descriptions. The lipoproteins, triglycerides and cholesterol in very low density lipoprotein (VLDL), low-density lipoprotein (LDL) and high-density lipoprotein (HDL) were measured by gel filtration using HPLC as previously described (Bai et al., 2012). Briefly, rat serum (100 μl) was eluted with a solvent of 154 mM NaCl with 0.1 mM EDTA (pH 8.0) at a flow rate of 0.2 ml/min via a Pharmacia Superose 6 HR 10/30 FPLC column, and the signal was read at a wavelength of 280 nm. Fractions were collected for 1.2 min each from 20 min up to 100 min. 180 μl of each fraction plus 20 μl of a 10× solution of Wako Total Cholesterol E Reagent (Wako Chemicals USA, Richmond, Va.) was incubated in a 96-well plate at 37° C. for 3 hrs in the dark to analyze cholesterol levels, and the absorbance was read at a wavelength of 595 nm. 2 μl of each fraction plus 200 μl of Infinity™ Triglycerides Reagent (Fisher Scientific, Pittsburgh, Pa.) was incubated in a 96-well plate at 37° C. for 5 minutes in dark to analyze triglyceride levels, and the absorbance was read at a wavelength of 500 nm. The lipoprotein profile was monitored as an internal control.” for “descriptions.”

[6] = gavage 10 mg/kg, normalized by liver weight
[7] = gavage administration once a day for 21 days, fasted overnight, vs vehicle
[8] = intraperitoneal administration, 50 mg/kg once every three days

With CC(CCCC(C)(C)O)C1CCC2C3CC=C4CC(OS(=O)(=O)O)CCC4(C)C3CCC12C (stereo not shown) [25HC3S, 5-cholesten, 3-, 25-diol, 3-sulfate] the “Force Rank (Oil Red O)” value ([1]; 10 mg/kg/day gavage) was 4, the “Severity of Hepatic Lipidosis” value ([1]; 10 mg/kg/day gavage) was “Mild to moderate” and the “Force Rank (Oil Red O)” value ([1]; 30 mg/kg/day gavage) was 3. The “Severity of Hepatic Lipidosis” value ([1]; 30 mg/kg/day gavage) was “Mild to moderate”, the “Force Rank (Oil Red O)” value ([1]; 50 mg/kg IP every 3 days) was 2 and the “Severity of Hepatic Lipidosis” value ([1]; 50 mg/kg IP every 3 days) was “Mild”. For the same compound, the “Force Rank (Oil Red O)” value ([1]; 100 mg/kg/day gavage) was 1, the “Severity of Hepatic Lipidosis” value ([1]; 100 mg/kg/day gavage) was “Mild” and the “lipid inclusions in hepatocytes (HE stained liver sections)” value ([1]; 10, 30 and 100 mg/kg PO (FIGS. 3B, C, D) vs control rats) was “significantly decreased”. The “liver free cholesterol concentration” value ([2]; administration of 25HC3S) was “not affected”, the “reduction of liver tissue free fatty acids” value [2, 6] was 26% and the “reduction of liver tissue total cholesterol” value [2, 6] was 25%. For the same compound, the “reduction of liver tissue triglyceride” value [2, 6] was 43%, the lipid accumulation [3] was “reduce lipid accumulation” and the lipid accumulation [4] was “reduce lipid accumulation”. For the same compound, the “decrease of plasma CHOL” value [5, 7] was 17%, the “decrease of plasma TG” value [5, 7] was 30% and the “change in HDL levels” value ([5]; gavage administration, 21 days) was “no significant change”. The “change in LDL levels” value ([5]; gavage administration, 21 days) was “no significant change”, the “serum HDL” value [5, 8] was “significantly decreased” and the serum total cholesterol [5, 8] was “significantly decreased”. For the same compound, the serum triglyceride [5, 8] was “significantly decreased”.
